Strand notation (5' to 3'): a small letter for the sugar, then the base; units joined by * are phosphorothioate-linked, units joined directly phosphodiester-linked; [ ] holds rarer units or linkages, { } end groups; capitals alone tell only the bases. e = 2'-O-(2-methoxyethyl) (MOE); [5mC] = 5-methylcytosine; d = 2'-deoxy (DNA)
How the values were obtained:
SGLT2 mRNA = SGLT2 mRNA in kidney of Balb/c mice, twenty 1-10-1 MOE gapmers, PPS 534 and PPS 553 (Table 74); format: in vivo, mouse; settings: i.p. 350 nmol/kg twice per week for two weeks
Experimental: Twenty 1-10-1 MOE gapmers that are complementary to human/monkey/mouse/rat SGLT2 were designed, synthesized and tested in vivo for suppression of SGLT2 mRNA levels in kidney. Data are averages from two experiments in which male 6-week old Balb/c mice were administered intraperitoneal injections of 350 nmol/kg of oligonucleotide, twice per week, over a period of two weeks (a total of four injections). Mice were sacrificed 48 hours following the last administration and evaluated for SGLT2 mRNA levels in kidney. SGLT2 mRNA levels were determined by quantitative real-time PCR analysis according to standard procedures, using two different PCR primer probe sets, primer probe set (PPS) 534 and PPS 553. SGLT2 mRNA levels were normalized to cyclophilin mRNA levels, which were also measured by quantitative real-time PCR.

PTP1B mRNA = assay: Dose response for human PTP1B in HuVEC cells, PPS 198 and PPS 3000 (Tables 86, 87); format: cell-based
Experimental: Human vascular endothelial (HuVEC) cells were plated at a density of 5000 cells per well and treated as described herein with nM concentrations of short antisense compound as indicated in Table 86. After the treatment period, RNA was isolated from the cells and PTP1B mRNA levels were measured by quantitative real-time PCR, as described herein. PTP1B mRNA levels were adjusted according to total RNA content as measured by RIBOGREEN®. Two different human PTP1B primer probe sets were used to measure mRNA levels. Results with Primer Probe Set (PPS) 198 are shown in Table 86, and results with Primer Probe Set (PPS) 3000 are shown in Table 87. Results are presented as percent inhibition of PTP1B mRNA expression relative to untreated control cells.

PCSK9 mRNA [1] = format: cell-based, human; settings: Hep3B cells, 100 nM, relative to untreated control cells; for % Inhib: 0 = no reduction observed
PCSK9 mRNA [2] = assay: Dose-dependent antisense inhibition of PCSK9 in Hep3B cells, EC50 (Table 76); format: cell-based, human
Experimental: When cells reached appropriate confluency, they were treated with oligonucleotide using LIPOFECTIN® as described. […] Cells were treated and data were obtained in duplicate or triplicate. […] Cells were harvested 16-24 hours after oligonucleotide treatment.
Short antisense compounds targeted to a PCSK9 nucleic acid were tested in a dose response experiment Hep3B cells. After the treatment period, RNA was isolated from the cells and PCSK9 mRNA levels were measured by quantitative real-time PCR, as described herein. PCSK9 mRNA levels were normalized to cyclophilin mRNA levels, as measured by real-time PCR using a cyclophilin-specific primer probe set. Results are presented as percent inhibition of PCSK9, relative to untreated control cells. […] As illustrated in the following table, PCSK9 mRNA levels were reduced in a dose-dependent manner.

[3] = Triglyceride, cholesterol and glucose levels, pre-bleed and post-bleed, GCGR study (Table 34); format: in vivo, mouse; settings: C57/BL6 mice, 48 hours after single i.p. dose
Experimental: Eight-week old male C57/BL6 mice (Jackson Laboratory, Bar Harbor, Me.) were administered a single dose of GCGR oligonucleotide by intraperitoneal injection at a concentration of […]. Each dose group consisted of four animals. Shown in Table 31 are the sequences, motifs and conjugates of the GCGR antisense compounds used in this study. Bolded residues indicate 2′-O-methoxyethyl (2′-MOE) moieties. All compounds comprise phosphorothioate internucleoside linkages throughout and each cytosine is replaced with 5-methylcytosine. ISIS 386626, ISIS 386627 and ISIS 386628 further comprise a C16 conjugate group attached to the 2′-O position of the sugar via a diamide linkage (2′-OCH2C(═O)N(H)(CH2)4N(H)C(═O)—(CH2)15CH3). GCGR antisense compounds target published GCGR sequences, including Genbank® Accession No. BC031885.1 (SEQ ID NO: 7).
Mice were sacrificed 48 hours following injection to determine serum transaminase levels (Table 32); liver, white adipose tissue (WAT), spleen and kidney weight (Table 33); cholesterol, triglyceride and glucose levels (Table 34); GCGR mRNA levels (Tables 35-41); and full-length and total oligonucleotide concentration in liver and kidney (Table 42). Endpoints were assessed using methods described herein and well known to those of ordinary skill in the art. Data is included from a pre-treatment bleed (Pre-Bleed) and post-treatment bleed (Post-Bleed).

[4] = primer probe set 534, normalized to cyclophilin
[5] = primer probe set 553, normalized to cyclophilin

Row | Substance | % change in SGLT2 mRNA vs saline (SGLT2 mRNA; [4]) [% Saline] | % change in SGLT2 mRNA vs saline (SGLT2 mRNA; [5]) [% Saline] | % Inhibition Range (PCSK9 mRNA [1]) | % Inhib (PCSK9 mRNA [1]) [%] | % Inhibition (PCSK9 mRNA [2]; 5 nM) [%] | % Inhibition (PCSK9 mRNA [2]; 10 nM) [%] | % Inhibition (PCSK9 mRNA [2]; 20 nM) [%] | % Inhibition (PCSK9 mRNA [2]; 40 nM) [%] | % Inhibition (PCSK9 mRNA [2]; 80 nM) [%] | % Inhibition (PCSK9 mRNA [2]; 160 nM) [%] | also measured
1 | 370717 (antisense eT*dA*dG*d[5mC]*d[5mC]*dA*d[5mC]*d[5mC]*dA*dA*d[5mC]*eT) [compound 370717] | −84.4 | −84.3 |  |  |  |  |  |  |  |  | 
2 | 379684 (antisense eT*dG*dT*d[5mC]*dA*dG*d[5mC]*dA*dG*dG*dA*eT) [compound 379684] | −45.0 | −43.2 |  |  |  |  |  |  |  |  | 
3 | 379685 (antisense eT*dG*dA*d[5mC]*d[5mC]*dA*dG*d[5mC]*dA*dG*dG*eA) [compound 379685] | −10.3 | −20.5 |  |  |  |  |  |  |  |  | 
4 | 379686 (antisense eA*d[5mC]*d[5mC]*dA*d[5mC]*dA*dA*dG*d[5mC]*d[5mC]*dA*eA) [compound 379686] | −71.9 | −75.1 |  |  |  |  |  |  |  |  | 
5 | 379687 (antisense eG*dA*dT*dG*dT*dT*dG*d[5mC]*dT*dG*dG*e[5mC]) [compound 379687] | −47.1 | −52.1 |  |  |  |  |  |  |  |  | 
6 | 379688 (antisense e[5mC]*d[5mC]*dA*dA*dG*d[5mC]*d[5mC]*dA*d[5mC]*dT*dT*eG) [compound 379688] | −62.6 | −70.4 |  |  |  |  |  |  |  |  | 
7 | 399276 (eG*eA*dG*dG*dT*dA*dT*d[5mC]*d[5mC]*d[5mC]*dA*dT*e[5mC]*eT; antisense) [compound 399276] |  |  |  |  |  |  |  |  |  |  | % Inhibition (PTP1B mRNA; PPS 198, 1.11 nM): 0%; % Inhibition (PTP1B mRNA; PPS 198, 3.33 nM): 8%; % Inhibition (PTP1B mRNA; PPS 198, 10.0 nM): 61%; % Inhibition (PTP1B mRNA; PPS 198, 30.0 nM): 89%; % Inhibition (PTP1B mRNA; PPS 3000, 1.11 nM): 0%; % Inhibition (PTP1B mRNA; PPS 3000, 3.33 nM): 14%; % Inhibition (PTP1B mRNA; PPS 3000, 10.0 nM): 64%; % Inhibition (PTP1B mRNA; PPS 3000, 30.0 nM): 86%
8 | 399315 (antisense eG*eG*d[5mC]*dA*dA*d[5mC]*dT*dT*d[5mC]*dA*dA*d[5mC]*e[5mC]*eT) [compound 399315] |  |  |  |  |  |  |  |  |  |  | % Inhibition (PTP1B mRNA; PPS 198, 1.11 nM): 0%; % Inhibition (PTP1B mRNA; PPS 198, 3.33 nM): 20%; % Inhibition (PTP1B mRNA; PPS 198, 10.0 nM): 68%; % Inhibition (PTP1B mRNA; PPS 198, 30.0 nM): 88%; % Inhibition (PTP1B mRNA; PPS 3000, 1.11 nM): 0%; % Inhibition (PTP1B mRNA; PPS 3000, 3.33 nM): 25%; % Inhibition (PTP1B mRNA; PPS 3000, 10.0 nM): 71%; % Inhibition (PTP1B mRNA; PPS 3000, 30.0 nM): 93%
9 | 400307 (antisense e[5mC]*eG*dG*d[5mC]*d[5mC]*dG*d[5mC]*dT*dG*dA*d[5mC]*d[5mC]*eA*e[5mC]) [compound 400307] |  |  | 70-80% | 76 | 35 | 39 | 45 | 56 | 92 | 93 | 
10 | 400308 (antisense e[5mC]*e[5mC]*dG*dG*d[5mC]*d[5mC]*dG*d[5mC]*dT*dG*dA*d[5mC]*e[5mC]*eA) [compound 400308] |  |  | 50-60% | 55 | 31 | 10 | 26 | 40 | 77 | 86 | 
11 | 400309 (antisense e[5mC]*e[5mC]*d[5mC]*dG*dG*d[5mC]*d[5mC]*dG*d[5mC]*dT*dG*dA*e[5mC]*e[5mC]) [compound 400309] |  |  | 40-50% | 44 | 49 | 23 | 38 | 12 | 72 | 78 | 
12 | 400327 (antisense eG*eT*d[5mC]*d[5mC]*d[5mC]*d[5mC]*dA*dA*dA*dG*dT*d[5mC]*e[5mC]*e[5mC]) [compound 400327] |  |  | 30-40% | 36 | 5 | 37 | 23 | 49 | 43 | 55 | 
13 | 400330 (antisense e[5mC]*e[5mC]*dA*d[5mC]*dG*dT*dG*dG*dG*d[5mC]*dA*dG*e[5mC]*eA) [compound 400330] |  |  | 40-50% | 43 | 8 | 32 | 40 | 69 | 82 | 71 | 
14 | 400331 (antisense eG*e[5mC]*d[5mC]*dA*d[5mC]*dG*dT*dG*dG*dG*d[5mC]*dA*eG*e[5mC]) [compound 400331] |  |  | 30-40% | 35 | 29 | 40 | 47 | 63 | 75 | 82 | 
15 | 400352 (antisense e[5mC]*eA*d[5mC]*d[5mC]*d[5mC]*dT*d[5mC]*dA*d[5mC]*d[5mC]*d[5mC]*d[5mC]*e[5mC]*eA) [compound 400352] |  |  | 20-30% | 29 | 7 | 16 | 40 | 44 | 63 | 64 | 
16 | 400353 (antisense eA*e[5mC]*dA*d[5mC]*d[5mC]*d[5mC]*dT*d[5mC]*dA*d[5mC]*d[5mC]*d[5mC]*e[5mC]*e[5mC]) [compound 400353] |  |  | 10-20% | 19 | 15 | 27 | 23 | 43 | 54 | 48 | 
17 | ISIS 386628: GCGR short antisense compound with C16 conjugate group at 2′-O via diamide linkage (TGTCTTGCTGCTTT; chemistry not fully specified) |  |  |  |  |  |  |  |  |  |  | Glucose levels (post-bleed) [3]: decrease in post-bleed glucose levels
